In US11116735B2, “Use of substituted benzylideneguanidine derivatives as synergists for polymyxin antibiotics” (GUANGZHOU INSIGHTER BIOTECHNOLOGY CO., LTD., priority 2015, dated 2021):

Key:
E. coli 2S-19 = assay: MIC by doubling dilution, colistin sulfate-susceptible E. coli 2S-19; assay type: cell-based, Escherichia coli
E. coli 5F-1 [1] = assay: MIC by doubling dilution, colistin sulfate-resistant E. coli 5F-1
Description: In vitro minimum inhibitory concentrations of colistin sulfate against the strains where the cultures respectively comprised 20.0 ppm of the substituted benzylideneguanidine derivatives were also measured.

[2] = test system: fast-growing yellow feather broilers; assay: Combined application of compound 3 and colistin sulfate in chicken feed; assay type: in vivo; conditions: 28-day experiment; for Average daily weight gain / Feed conversion ratio / Survival rate: broilers
Description: 800 1-day-aged fast-growing yellow feather broilers were divided into 4 groups, 4 parallels in each group and 50 broilers in each parallel. For each group, colistin sulfate and/or compound 3 were added into the feed. The chicken were kept in cages and given ad libitum access to feed and water during a 28-day experiment. Synergy of compound 3 and colistin sulfate on the chicken in the weight gain and feed efficiency was observed from the result (see Table 10).

E. coli 5F-1 [3] = assay: MIC, resistance reversal by various concentrations of compound 3, E. coli 5F-1
Description: The compound 3 in this embodiment was in the form of a hydrochloride, i.e., the experiments were carried out with a hydrochloride of compound 3.
In vitro minimum inhibitory concentrations of colistin sulfate against the strains where the cultures respectively comprised various concentrations of compound 3 were also measured.

[4] = 20 ppm colistin sulfate and 50 ppm compound 3 in feed (Test)

CC(C)Oc1ccc(C=NN=C(N)NN=Cc2ccc(OC(C)C)cc2)cc1 [Compound 3]
In vitro minimum inhibitory concentration (MIC) of the substance alone (E. coli 2S-19; E. coli 2S-19, colistin sulfate-susceptible, substance alone, derivatives as hydrochlorides): >800 ppm | In vitro MIC of colistin sulfate in the presence of the substituted benzylideneguanidine derivative (E. coli 2S-19; E. coli 2S-19, culture comprised 20.0 ppm of the derivative (hydrochloride), colistin sulfate serially diluted): 0.50 ppm | In vitro minimum inhibitory concentration (MIC) of the substance alone (E. coli 5F-1 [1]; E. coli 5F-1, colistin sulfate-resistant, substance alone, derivatives as hydrochlorides): >800 ppm | In vitro MIC of colistin sulfate in the presence of the substituted benzylideneguanidine derivative (E. coli 5F-1 [1]; E. coli 5F-1, resistant, culture comprised 20.0 ppm of the derivative (hydrochloride)): 1.0 ppm | Average daily weight gain [2, 4]: 44.6 g | Feed conversion ratio [2, 4]: 1.855 | Survival rate [2, 4]: 100% | Average daily weight gain ([2]; 100 ppm compound 3 in feed): 40.2 g | Feed conversion ratio ([2]; 100 ppm compound 3 in feed): 1.943 | Survival rate ([2]; 100 ppm compound 3 in feed): 100% | Synergy with colistin sulfate in weight gain and feed efficiency ([2]; chicken): Synergy | In vitro MIC of colistin sulfate in the presence of compound 3 (E. coli 5F-1 [3]; 5 ppm compound 3): 32.00 ppm | In vitro MIC of colistin sulfate in the presence of compound 3 (E. coli 5F-1 [3]; 10 ppm compound 3): 8.00 ppm | In vitro MIC of colistin sulfate in the presence of compound 3 (E. coli 5F-1 [3]; 20 ppm compound 3): 1.00 ppm | In vitro MIC of colistin sulfate in the presence of compound 3 (E. coli 5F-1 [3]; 40 ppm compound 3): 1.00 ppm | In vitro MIC of colistin sulfate in the presence of compound 3 (E. coli 5F-1 [3]; 80 ppm compound 3): 0.50 ppm | In vitro MIC of the substance alone (E. coli 5F-1 [3]; colistin sulfate with 0 ppm compound 3, or compound 3 (hydrochloride) in the absence of colistin sulfate): >800 ppm
